Legend:
human AT1R = biological target: T1, human AT1R (Homo sapiens, UniProt P30556); assay: Competition radioligand binding (125I-Sar1-Ile8-AngII) in AT1R-transfected HEK-293 cells
T1 construct: expressed in transfected cells
T1 sequence (P30556 1-359): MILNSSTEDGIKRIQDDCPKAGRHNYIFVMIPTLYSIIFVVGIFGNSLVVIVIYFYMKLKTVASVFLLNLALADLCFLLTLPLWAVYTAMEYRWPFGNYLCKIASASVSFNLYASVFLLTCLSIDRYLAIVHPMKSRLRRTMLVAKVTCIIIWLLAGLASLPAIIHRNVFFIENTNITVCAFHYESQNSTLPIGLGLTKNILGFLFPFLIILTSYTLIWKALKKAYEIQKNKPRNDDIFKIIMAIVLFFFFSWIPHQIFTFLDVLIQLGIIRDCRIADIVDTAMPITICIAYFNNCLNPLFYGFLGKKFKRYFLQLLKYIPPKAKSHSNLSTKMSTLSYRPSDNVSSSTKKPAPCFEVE

human AT2R = biological target: T2, human AT2R (Homo sapiens, UniProt P50052); assay: Competition radioligand binding (125I-Sar1-Ile8-AngII) in AT2R-transfected HEK-293 cells; details: transfected HEK-293 cells
T2 construct: expressed in transfected cells
T2 sequence (P50052 1-363): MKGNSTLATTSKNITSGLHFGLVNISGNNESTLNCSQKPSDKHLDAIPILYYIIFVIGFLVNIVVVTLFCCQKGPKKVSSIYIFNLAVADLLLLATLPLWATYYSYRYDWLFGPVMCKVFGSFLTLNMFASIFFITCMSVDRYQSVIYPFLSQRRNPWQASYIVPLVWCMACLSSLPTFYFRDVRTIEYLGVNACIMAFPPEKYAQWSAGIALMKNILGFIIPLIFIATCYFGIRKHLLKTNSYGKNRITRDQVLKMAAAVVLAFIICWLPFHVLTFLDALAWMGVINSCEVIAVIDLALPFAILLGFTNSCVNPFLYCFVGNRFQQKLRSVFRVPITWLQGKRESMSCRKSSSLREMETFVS
Procedure: This will lead to the generation of IC50 values that determine the relative ability of test compounds to interact with both Angiotensin receptors.
Cells were grown to approximately 80% confluence before being re-plated into 48 well plates at 1×10^5 cells/well and grown for 48 hours at 37° C. for a whole cell competition binding assay. [125I]-Sar1Ile8Ang II at 50,000 cpm, incubated for 45 minutes at 37° C., in the absence or presence of unlabeled ligands, prepared in binding buffer (DMEM, 0.1% BSA), were used in the competition assays at concentrations ranging from 1 μM to 10 μM. For each experiment, each ligand concentration was tested in duplicate or triplicate, and each experiment was repeated at least 3 separate times. […] The ability of each ligand to inhibit specific binding of [125I]-Sar1Ile8Ang II was measured on a gamma counter with all counts corrected for NSB.

[1] = In vitro plasma stability assay (rat plasma); type: in vitro ADME; details: plasma from male spontaneously hypertensive rats (SHR), read-out: Plasma stability (t1/2)
Procedure: Proteolytic stability may be tested in a plasma stability assay used to assess the susceptibility of a peptide described herein to plasma proteases. Plasma stability may be tested using methods described herein. For example, a sample of rat plasma may be incubated with peptide of interest (final concentration was 1 mg/mL; plasma diluted by 10% with peptide dissolved in saline). Protease activity is then quenched in samples by the addition of acetonitrile, at selected time intervals. The amount of parent compound remaining at each time point can then be assayed on an Agilent 1100 MSD SL ion trap mass spectrometer. The peaks observed in the resulting chromatograms are integrated, compared to a standard curve, and cross-checked by mass and retention time (Jones et al 2011 Hypertension. 57: 570-576).
B) Proteolytic stability was tested in a plasma stability assay used to assess the susceptibility of Ang II peptides to plasma proteases. A sample of rat plasma was incubated with peptide of interest (final concentration was 1 mg/mL; plasma diluted by 10% with peptide dissolved in saline). Protease activity was quenched in samples by the addition of acetonitrile, at selected time intervals. The amount of parent compound remaining at each time point was then assayed on an Agilent 1100 MSD SL ion trap mass spectrometer. […]

[2] = test system: male FVB/N mice on high salt diet, kidney; assay: High salt (5%) diet intervention model, kidney; type: in vivo, mouse; details: 75 pmol/kg/min s.c., weeks 5-8
[3] = test system: male FVB/N mice on high salt diet, kidney; assay: High salt (5%) diet intervention model, kidney; type: in vivo, mouse; details: 75 pmol/kg/min s.c., weeks 5-8; remark: listed apart in the source
Procedure: C) In the intervention (or reversal) model, male FVB/N mice were treated with selective AT2Rs agonists after the establishment of cardiovascular disease using a high salt diet, in order to reverse cardiovascular pathologies. In some experiments, the ACE inhibitor captopril (dose) or the ARB candesartan cilexetil (dose) were given for 4 weeks in drinking water. Organs examined included heart, kidney and liver and these were compared to either untreated mice or high salt-fed mice that were treated with saline.
Mice were placed on either a normal rodent diet (0.35% NaCl) which acted as control or a high salt diet (5% sodium in food chow) for 8 weeks. After 4 weeks, mice were also treated subcutaneously (via osmotic mini-pump) with either saline or an AT2R agonist (75 pmol/kg/min subcutaneously) for 4 weeks. Mice continued to be fed a high salt diet whilst receiving these treatments.
To measure collagen deposition, frozen sections of heart, kidney or aorta (all 5 μm thickness) were air dried for 10 minutes and were brought through 3 times xylene (2 minutes each), and 3 times absolute alcohol washes before being rinsed in tap H2O for 30 seconds. Staining with an optimal concentration of picrosirius red (in this instance 0.05% picrosirius red diluted in saturated picric acid) was performed and left for an hour. Sections were then rinsed in water and differentiated in 0.01M HCl for 2 minutes, followed by dehydration via 3 times absolute alcohol washes. Then, slides were brought through 3 times xylene washes before being cover slipped according to standard histological techniques using DPX as the mounting medium. Images were taken under ×20 magnification, using bright field (Olympus, BX51) and circularized polarized light microscopy (DM IRB, Leica) while percentage of positive interstitial collagen staining per total field of view was quantified using ImageJ 1.46 software (Java, NIH), and averaged out from a total of eight views as the final percentage collagen content in a particular animal.
Kidney sections used either picrosirius red staining as described above or using Mason's Trichrome staining as described below.
Formalin fixed, paraffin embedded kidneys were sectioned at thickness of 4 μm and were stained with Masson's trichrome according to standard procedures for analysis of kidney fibrosis. […] Sections were re-fixed in Bouin's solution for 1 hour at 56° C. to improve staining quality then rinsed in running tap water for 5-10 minutes to remove yellow colour. Following this, sections were stained in Weigert's iron hematoxylin working solution for 10 minutes. Rinsed in running warm tap water for 10 minutes. Washed in distilled water. Stained in Biebrich scarlet-acid fuchsin solution for 10-15 minutes. Washed in distilled water. Differentiated in phosphomolybdic-phosphotungstic acid solution for 10-15 minutes or until collagen was no longer red. Sections were transferred directly (without rinse) to aniline blue solution and stained for 5-10 minutes. Rinsed briefly in distilled water and differentiated in 1% acetic acid solution for 2-5 minutes. Washed in distilled water. […] Mounted with DPX mounting medium.
Quantification of kidney fibrosis was performed using images captured with the Aperio scanner (Monash Histology Platform, Monash University), with ×5 magnification. Each kidney section had 5 different fields of view photographed at this magnification. Percentage of tubulointerstitial collagen was analysed and quantified using ImageJ 1.48 software (Java, NIH), and the percentage from 5 random fields of view were averaged for final percentage of collagen for that particular animal. All analysis of collagen expression was conducted in a blinded fashion.

[4] = test system: male FVB/N mice on high salt diet, heart; assay: High salt (5%) diet intervention model, heart; type: in vivo, mouse
How it was run: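 Male FVB/N mice fed 5% salt diet for 8 weeks (controls 0.35% NaCl); from week 4, AT2R agonist at 75 pmol/kg/min or saline given subcutaneously by osmotic minipump for 4 weeks on continued high salt. Heart collagen by picrosirius red, % interstitial staining averaged over eight fields; immunofluorescence for fibrosis/inflammation markers.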

binding at AT1R (displacement of 125I-Sar1-Ile8-AngII), in words (human AT1R): bind poorly
binding at AT2R (displacement of 125I-Sar1-Ile8-AngII), in words (human AT2R): high affinity
half-life at 1 mg/mL [1]: 25.8 h
Structure (SMILES): CC[C@H](C)[C@H](NC(=O)[C@H](Cc1ccc(O)cc1)NC(=O)[C@@H](NC(=O)[C@H](CCCNC(=N)N)NC(C)=O)C(C)C)C(=O)N[C@@H](Cc1c[nH]cn1)C(=O)N1CCC[C@H]1CC(=O)N[C@@H](Cc1c[nH]c2ccccc12)C(=O)O [NAc-βPro-Trp-8-Ang III, NAc--Arg-Val-Tyr-Ile-His-β-Pro-Trp]
macrophage infiltration in kidney (F4/80) [2]: reversed high salt-induced macrophage infiltration in the kidney
renal fibrosis by hydroxyproline analysis [2]: reversed the pro-fibrotic effects of high salt in the kidney
renal inflammation (phospho-IκBα expression) [2]: reversed high salt-induced renal inflammation in the kidney
kidney glomerular fibrosis (picrosirius red) [3]: reversed the glomerular fibrosis caused by high salt in the kidney
kidney tubulointerstitial fibrosis (picrosirius red) [3]: reversed the tubulointerstitial fibrosis caused by high salt in the kidney
cardiac fibrosis by hydroxyproline analysis (LV collagen content) ([4]; 75 pmol/kg/min s.c., weeks 5-8): reversed the pro-fibrotic effects of high salt in the heart
cardiac oxidative stress (DHE staining) ([4]; 75 pmol/kg/min s.c., weeks 5-8): reversed the oxidative stress effects of high salt in the heart
myofibroblast differentiation in heart (α-SMA) ([4]; 75 pmol/kg/min s.c., weeks 5-8): reversed myofibroblast differentiation
expression of P-IκBα (marker for NFκB activation) in heart ([4]; weeks 5-8, peptides 75 pmol/kg/min s.c., Cand 2 mg/kg/day, captopril 3 mg/kg/day): reversed
cardiac fibrosis (picrosirius red) ([4]; weeks 5-8 of high salt diet, peptides 75 pmol/kg/min s.c. mini-pump, Cand 2 mg/kg/day, captopril 3 mg/kg/day in drinking water): reversed cardiac fibrosis

Source: patent US11331368B2, “Angiotensin receptor agonists and uses thereof” (Monash University, priority 2017, dated 2022)
